The target of test [1] is T1, calmodulin-tagged phage DN323 (Homo sapiens, UniProt P0DP23).
T1 construct: made in house; host or cells: E. coli (phage production)
Put plainly: Stability of (calmodulin-tagged phage)/peptide complex to PEG precipitation, ELISA. Type of test: binding. The settings on record: 20% PEG 6000 + 2.5M NaCl, 1 hour on ice. As to the method:
Stability of (calmodulin-tagged phage)/peptide complexes to PEG precipitation was checked as follows. A 10^−8M solution (final concentration) of a biotinylated calmodulin-binding peptide […] was added to 1 ml of calmodulin-tagged phage (10^12 transforming unit/ml) in TBSC and incubated for 10 minutes. To this solution, 20% polyethyleneglycol (Mw6000) +2.5M NaCl was added (200 μl ) and the resulting mixture was incubated on ice for 1 hour, then centrifuged on a bench centrifuge (13,000 rpm; 5 minutes).
The pellet was resuspended in 1 ml of TBSC. The titre of the phage solutions before and after PEG precipitation were then determined. The fraction of phage particles that were still peptide-bound after the PEG precipitation procedure was evaluated by ELISA, using a streptavidin-coated plate (see above).
The difference in ELISA binding activity between the sample before (1) and after (2) PEG precipitation corresponds to a small loss in phage titre, as determined by E. coli infection and titration. In sample 3, 2% milk in TBSC was used instead of phage.
Background: ELISA stands for enzyme-linked immunosorbent assay.

The target of test [2] is T1, calmodulin-tagged phage DN323. In words: Competition assay of (calmodulin-tagged phage)/(biotin-peptide) complex with 1000-fold excess unlabeled peptide, ELISA. In kind it is binding. The following applies: 1000-fold molar excess of non-biotinylated peptide. As to the method: A 10^−8 M solution of a biotinylated calmodulin-binding peptide ([…] or […]; Montigiani et al., 1996) was added to calmodulin-tagged phage preparations (10^12 transforming units/ml) in TBSC and incubated for 10 minutes. To the resulting mixture, aliquoted in different tubes, unlabeled […] peptide in 1000-fold molar excess (10^−5 M) was added at different times. The fraction of phage particles in which the biotinylated peptide had been replaced by the unlabeled peptide was then determined by ELISA as described above.
The results of a competition assay of (calmodulin-tagged phage DN323)/(biotin-peptide) complex with a 1000-fold molar excess of non-biotinylated calmodulin-binding peptide, detected by ELISA are illustrated in FIG. 5. Squares: […]; circles, CAAARAXKNFIAVSAANRFKKIS.

Another test concerns the target calmodulin (Homo sapiens, UniProt P0DP23). The settings on record: cited from earlier work.
The test system of test [3] is LUCK+ peptide substrate / GST-SH2 fusion. In words: Selection of lck tyrosine kinase phage by capture of phosphorylated peptide on GST-SH2. Type of test: biochemical, murine. The settings on record: LUCK- peptide instead of LUCK+, all three phages. As to the method:
As affinity capture reagent a GST-fusion of the N-terminal SH2 domain of PI 3-kinase was used, subcloned in pGEX vector (Pharmacia) and affinity-purified on glutathione agarose. The GST-SH2 fusion was coated on Nunc Immunotubes (4 ml; 100 μg/ml in PBS) at room temperature overnight. The tubes were then washed and incubated for 2 hours with 3% BSA in phosphorylation buffer (30 mM HEPES, pH 7.4, 150 mM NaCl, 12 mM MgCl2, 1 mM sodium vanadate, 1 mM CaCl2).
ATP was then added to a final concentration of 100 μM. After one minute, the mixtures were loaded onto separate GST-SH2-coated immunotubes and incubated for 30 minutes. The tubes were then washed 10 times with TBS +1 mM CaCl2 (TBSC) +0.1% Tween-20 and 10 times with TBSC. The phage bound to the tube via the phosphorylated peptide was specifically eluted with 1 ml 10 mM EGTA in PBS (Neri et al., 1995) that causes dissociation of the peptide ligand from calmodulin present in the fusion protein presented on the phage.
The eluted phage was used to infect exponentially growing TG1 E. coli cells according to standard procedures (Nissim et al., 1994), then plated on selective ampicillin-glucose-TY plates. Ampicillin-resistant transformants were counted and used to calculate the titre of the phage recovered in the selection procedure.

The Kd is the free concentration of one partner at which half of the binding sites on the other are occupied at equilibrium, for simple one-to-one binding.

No end group written: not given here. *: point of attachment. Biotin = O=C1N[C@H]2[C@H](CS[C@H]2CCCCC(=O)*)N1 A value given as a limit tells only on which side of the number the result lay.

With Biotin-CAAARWKKAFIAVSAANRFKKIS, the “stability of calmodulin/peptide complex upon PEG precipitation” value in test [1] was “stable even after PEG precipitation”.

As to CAAARWKKAFIAVSAANRFKKIS, in test [2], the koff is listed as < 10^−1 s^−1 and the “time for which complex with calmodulin-tagged phage is stable” value is given as “more than 2 hours”. On calmodulin, the dissociation constant Kd is 2.2 pM. As to EPQFEEIGAARWKKAFIAVSNMFKKIS [LUCK-], the phage titres recovered result in test [3] is “low phage titres”.

The values above are taken from US6495673B1, “Method for isolating the DNA encoding an enzyme” (Medical Research Council, priority 1996, dated 2002).
